Entries after “also recorded” stand apart in the source; their conditions may differ.
Tests used:
Log Kow = type: physicochemical
[1] = Permeation through the stratum corneum of human cadaver skin; type: in vitro ADME; conditions: cumulative permeation over time, FIG. 33
Source text: FIG. 33. Ketoprofen chemistry. (A) Chemical formula of ketoprofen. (B) Ester modification to improve bioavailability. […] Closed triangles: Methyl ester. Open circles: ethyl ester. Open squares: isopropyl ester. x axis=time in hours.

[2] = tested on: tail lymphedema in SKH-1 mice; test: Tail volume quantitation, NSAID / sTNF-R1 treatment (Example 4); type: in vivo, mouse
Description: Tail lymphedema was induced in female hairless, immunocompetent SKH-1 mice (Charles River Laboratories, Boston, Mass.) as described. The mice were anesthetized with a solution of ketamine, xylazine, and saline (0.07 ml i.p.). The skin of the tail was circumferentially incised 16 mm distal to its base. The major lymphatic trunks were identified by subcutaneous injection of methylene blue distal to the incision and ablated by limited cautery. The mice were carefully monitored for any visceral signs of distress. Sham surgery controls were treated identically, but without lymphatic cautery. […] All mice were sacrificed in accordance with American Veterinary Medical Association guidelines for rodent euthanasia after day 11 days of observation. After sacrifice, 500 mg sections of the tail were harvested for paraffin embedding and RNA extraction. For all in vivo experiments, housing, husbandry and experimentation were in strict accordance with the Animal Welfare Act and the Guide for the Care and Use of Laboratory Animals.
Sham surgery and normal controls were treated identically with the NSAID (n=8 per group), sTNF-R1 (n=11 per group), or PBS (n=11 normal controls, n=8 sham surgery controls).
Tail volume was measured serially in each mouse, using a digital photographic application of the truncated cone approximation as described.

[3] = tested on: tail lymphedema in SKH-1 mice; test: Histology and histomorphometric quantitation of epidermal thickness (Example 4); type: in vivo, mouse; conditions: for histological changes in mice with lymphedema: hematoxylin/eosin
Description: Immediately after sacrifice, 0.5-g sections of tail were harvested for histological analysis and RNA extraction. Sections extended from a point 4 mm proximal to the surgical incision to 8 mm beyond it. The specimens were fixed overnight in 4% paraformaldehyde, embedded in paraffin, cut into 5-μm sections, stained with hematoxylin and eosin (Richard-Allan Scientific, Kalamazoo, Mich.), and examined by light microscopy.
Epidermal thickness was measured serially using digital images of histology slides stained with hematoxylin and eosin. Processing and analysis were performed using Adobe Photoshop CS4 and ImageJ (http://rsbweb.nih.gov/ij) as previously described with modifications (Sanders J E, et al. Comput Methods Programs Biomed. 1999; 59:167-180). Quantitative measurements were imported to Prism 5 software (GraphPad Software Inc., La Jolla, Calif.) for statistical analysis and graphing.

[4] = tested on: TNF-α, MCP-1, VEGF-C, VEGF-D, VEGFR-3, Prox1, LYVE-1 expression; test: Targeted gene expression analysis by quantitative real-time RT-PCR in tail skin; type: in vivo, mouse
Description: Primers and probes were from Assays-on-Demand (Applied Biosystems, Foster City, Calif.). cDNA was synthesized from 5 μg of total RNA with Taqman reverse-transcription reagents (Applied Biosystems) and amplified in triplicate at 50° C. for 2 minutes and 95° C. for 10 minutes, followed by 40 cycles of 95° C. for 15 seconds and 60° C. for 1 minute. Reactions without template and/or enzyme were used as negative controls. 18S ribosomal RNA served as an internal control. A standard curve derived from embryonic mouse RNA was plotted for each target gene by linear regression using SPSS software (v. 11.0, Applied Biosystems). RNA quantity was expressed relative to the corresponding 18S control. Fold differences were calculated by dividing the experimental results by the pooled normal results and were plotted on a log 10 scale.

[5] = tested on: cytokine levels in tail skin; test: Tissue cytokine assays (Luminex) in tail skin homogenates; type: in vivo, mouse
Description: Cytokine levels in tail skin were measured in normal controls and mice with untreated, NSAID-treated, and sTNF-R1-treated lymphedema (n=3 per group) sacrificed on postoperative day 7. The Luminex LabMap200 System was used to measure the levels of 42 cytokines from the supernatant of tissue homogenates. Multiplex cytokine kits were purchased from Panomics (Fremont, Calif.), and the assay was performed according to the manufacturer's recommendation with the following modifications: 25-50 μl of samples, standards, and controls were added in duplicate to 96-well filter plates pre-configured with a panel of anti-cytokine antibodies covalently linked to unique polystyrene beads. The plate was incubated overnight at 4° C. in the dark with shaking at 500 rpm, vacuum aspirated, and washed three times with 140 μl of wash buffer to remove unbound antigen. Biotinylated detection antibody solution (25 μl) was added to each well and incubated for 1 hour with shaking at 500 rpm at room temperature. The plate was incubated with 50 μl of streptavidin-phycoerythrin for 35 minutes and then with 120 μl of reading buffer for 3 minutes at room temperature with shaking. After laser excitation, digital images of the bead array were captured with a CCD camera and analyzed on a computer workstation with BeadView software.

[6] = tested on: post-surgical lymphedema in the tails of SKH-1 mice; test: Tail volume quantitation, VEGF-C in experimental lymphedema (Example 3); type: in vivo, mouse; conditions: single subcutaneous dose of 200 ng on post-surgical day 3
Description: Post-surgical lymphedema was experimentally created in the tails of female hairless, immunocompetent SKH-1 mice (Charles River Laboratories, Boston Mass.) as described in example 1, above. Therapeutic VEGF-C lymphangiogenesis in experimental lymphedema. On post-surgical day 3, the treated animal subjects received parenteral recombinant human VEGF-C (R&D Systems Inc., Minneapolis, Minn.). Each animal received a single subcutaneous dose of 200 ng of the growth factor (2 mg/mL), equally divided between the proximal and distal wound edges. Untreated lymphedema subjects received subcutaneous saline analogously administered.
Tail volume was serially quantitated in 19 mice divided into four treatment categories: normal, untreated lymphedema, VEGF-C-treated lymphedema, and surgical sham controls. For animals who had surgical intervention, this was defined to have occurred on day 0. All of the mice had quantitation of baseline tail volume; thereafter, volume was quantitated at defined time points: days 2, 4, 7, 9, 11, 14, 16, 18, 21, 23 28, 35, 42, 50, 57, 63, 65, 67 and 71. […] A single digital image of each tail was recorded with an OLYMPUS D520 Zoom digital camera at 1600×1200SHQ resolution. […] The diameter of the tail was digitally, serially quantitated at distances of 8 mm beginning at the proximal end of the tail. […]

[7] = tested on: post-surgical lymphedema in the tails of SKH-1 mice; test: Histology of tail sections (H&E), VEGF-C study; type: in vivo, mouse; conditions: day 11
Source text: For histological evaluation, 11 mice were sacrificed on Day 11 of observation. Immediately following sacrifice, 0.5 gm sections of the tail were harvested. Sections extended from a point 4 mm proximal to the surgical incision to 8 mm beyond it. The specimens were fixed overnight in 4% paraformaldehyde. After paraffin embedding, 5 μm sections were stained with hematoxylin and eosin (H&E, Richard-Allan Scientific). After deparaffinization in xylene, sections were rehydrated though a series of graded alcohol steps starting with 100% EtOH and ending in 50% EtOH. Slides remained in toluidine blue for 2 minutes and were then dehydrated through graded alcohol washes and covered with Cytoseal (Richard Allan Scientific).

[8] = tested on: LYVE-1-positive lymphatic vessels; test: LYVE-1 immunohistochemical staining, lymphatic vessel number and area; type: in vivo, mouse
Description: 5 μm-thick paraffin sections were de-paraffinized in xylene, re-hydrated in a graded series of ethanol, pretreated with target retrieval solution (Dako, Carpinteria, Calif.) in a pressure cooker, and incubated in a peroxidase block for 10 minutes. Sections were then incubated with rabbit polyclonal anti-LYVE-1 antibody (1:200, Upstate Cell Signaling Solutions, Lake Placid, N.Y.) for 1 hour at room temperature, followed by horseradish peroxidase (HRP)-conjugated secondary antibody for 30 minutes at room temperature and detection with DAB for 4 minutes (Envision System Kit, Dako). Tissue sections were counterstained with Gill 1 Hematoxylin (Richard-Allan Scientific, Kalamazoo, Mich.). for 15 seconds, then dehydrated in graded ethanol and coverslipped with CoverSafe (American Master*Tech, Lodi, Calif.).
5 μm-thick paraffin sections were prepared and stained for LYVE-1 as described in example 1, above.
Mean lymphatic vessel number was determined by averaging the number of total lymphatic vessels in all of the fields of each slide at 10× magnification. The observer was blinded to the treatment status of the animal in each case. Lymphedema was characterized by an increase in LYVE-1-positive vessel number/field that was not observed in normals or after VEGF-C-treatment: lymphedema, 7.3±4.0 (P=0.02 compared to normal); VEGF-C, 1.3±0.9 (N.S.); and normal, 1.0±0.8.
Lymphatic vessel area was quantitated according to the formula π·r1·r2. […] Both vessel number and size returned substantially to normal following exogenous administration of recombinant VEGF-C.

[9] = tested on: clearance of luc+ splenocytes from lymphedematous tails of FVB/N mice; test: Functional in vivo bioluminescence imaging of immune traffic, VEGF-C study; design: species or system mouse
Description: Experimental lymphedema was created surgically in the tails of 20 FVB/N female wild type mice (Jackson Laboratories, […]), using the technique described above, and functionally compared with normal mice (n=8). The lymphedematous mice were treated with human recombinant VEGF-C or with saline, as described above, on post-surgical day 3. For in vivo bioluminescence imaging, spleens from transgenic luc+ heterozygous animals, expressing firefly luciferase under the control of a chicken beta-actin promoter, as previously described (Beilhack et al., 2005; Cao et al., 2004), were placed into single cell suspension. These single cell suspensions consisted of different hematopoietic lineages: ˜40% were CD19+ B cells, ˜20% CD4+ T cells, ˜10-15% were CD8+ T cells, 3% NK1.1+ NK cells and the rest were GR.1+ granulocytes, Mac-1+ macrophages, CD11c+ dendritic cells and rarer cell populations. 4×10^6 splenocytes (>97% CD45+) in PBS were injected in a volume of […] into the tail interstitium/emission]×100%. 1 cm caudal to the site of surgery, in lymphedema mice and normal controls, respectively. […] The efficiency of cellular lymphatic drainage was determined by direct imaging of light emission, with quantitation of the relative change in light emission from that measured at 20 hours after cell injection, as follows: relative photon emission=[emissionday 7/emission20 hours]×100%.

Molecule: COC(=O)C(C)c1cccc(C(=O)c2ccccc2)c1 (stereo not drawn) [ketoprofen methyl ester]
- Log Kow (Log Kow): 3.65
- ability to permeate the stratum corneum of human cadaver skin [1]: most penetration

Molecule: pegsunercept [sTNF-R1]
- tail volume, % of baseline ([2]; day 7, lymphedema mice, s.c. every other day from day 3): 183.7±26.8%
- edematous response (tail volume) of lymphedema mice ([2]; lymphedema mice, systemic s.c. treatment): significantly more edematous
- effect on tail volume in normal and sham surgery mice ([2]; normal and sham surgery mice): no discernable effect
- epidermal thickness (ET) compared to untreated LY mice ([3]; FIG. 14B): significantly increased
- epidermal thickness increased, compared to untreated mice with lymphedema ([3]; day 11): 16.0±2.5%
- histological changes in mice with lymphedema ([3]; day 11, listed as sTNFR1): no discernible amelioration
- histological changes in mice with lymphedema ([3]; day 11, listed as sTNFR-1): exacerbates the pathology
- expression of other targeted genes (other than TNF-α) ([4]; day 11): did not affect other genes
- TNF-α expression (mRNA) ([4]; day 11, lymphedema mice): reduced TNF-α expression to control levels; also recorded: downregulated
- VEGF-C expression (mRNA) ([4]; lymphedema mice): decreased
- VEGFR-3 expression ([4]; lymphedema mice): decreased
- MCP-1 tissue levels (protein) ([5]; postoperative day 7): further increased
- MCP-3 tissue levels (protein) ([5]; postoperative day 7): significantly reduced
- eotaxin tissue levels ([5]; postoperative day 7): decreased
- MCP-3 tissue levels (protein) ([5]; postoperative day 7, listed as sTNFR-1): inhibited

B1: VEGF-C: parenteral recombinant human VEGF-C (R&D Systems Inc.), growth factor (protein, UniProt P49767 112-227, looked up)
Vascular endothelial growth …: AHYNTEILKSIDNEWRKTQCMPREVCIDVGKEFGVATNTFFKPPCVSVYRCGGCCNSEGLQCMNTSTSYLSKTLFEITVPLSQGPKPVTISFANHTSCRCMSKLDVYRQVHSIIRR
- mean tail volume compared with untreated lymphedema [6]: significant decrease in volume; also recorded: diminution in the mean tail volume; also recorded: volume reduction, compared with untreated lymphedema, was evident by day 7
- histological pattern of tail tissue [7]: substantial reversion to the normal pattern
- LYVE-1-positive vessel number/field ([8]; 10x magnification, day 11): 1.3±0.9
- average lymphatic area/field (LYVE-1-positive vessel area) ([8]; formula π·r1·r2, n=3): 2992±1311 μm^2
- size and number of LYVE-1-positive skin lymphatics ([8]; vs untreated lymphedema): reduction in the observed size and number of these skin lymphatics; also recorded: reduction in the number and size of LYVE-1-positive vessels
- clearance of bioluminescent immunocytes (immune traffic) ([9]; day 7 post-injection): ameliorated
- relative photon density, % of the observed value 20 hours post-injection ([9]; day 7 post-injection (post-operative day 14), n=12): 24±9%

From US8965708B2, “Method for the treatment of acquired lymphedema” (The Board of Trustees of the Leland Stanford Junior …, priority 2006, dated 2015)
